Literature values as cited in patent US8268905B1, “Compositions containing poly(lactic acid), bacteriocin(s), plasticizers(s), and optionally pore forming agent(s), and methods or making” (The United States of America, as represented by the …, priority 2008, dated 2012).

Details: background statement

## nisin
  maximal temperature at which nisin can retain its bioactivity: 120 °C
